Results published in patent US4483868A, “Gastro-protecting activity” (Roussel Uclaf, priority 1980, dated 1984).

What was measured:
[1] = test system: ulcers in rats at the stomach level; assay: Anti-ulcer activity, Shay method (pylorus ligature in rats); type: in vivo; settings: oral, about 16 hours after treatment
Text: (1) Determination of Anti-Ulcer Activity
The method used is described by SHAY et al. in Gastroenterology, 5, 43 (1945).
The Shay method consists of inducing ulcers in rats at the stomach level by ligature of the pylorus.
The animals are anesthetized with ether. A longitudinal incision is made about 1 cm below the sternum, the glandular part of the stomach and the duodenum are exposed, and a ligature is placed several mm below the pylorus. The muscular sheet is left as it is, and the skin is sutured with two clips.
As soon as possible afterwards, the animals receive the dispersive or the substance to be studied via the mouth in a volume of 0.5 ml/100 g and are kept without food or drink until sacrificed by carotid bleeding, which takes place about 16 hours after the treatment.
Before removing the stomach, a ligature is placed above the cardia.
The gastric liquid is collected in order to measure the pH.
The stomach is then opened along the major curvature, rinsed with physiological serum, and spread out on millimeter paper to be examined under a binocular magnifier.
The severity of the lesions is evaluated macroscopically and graded from 0 to 4 for each stomach.
The mean intensity of ulcerations is determined for each group of rats, and the protection is calculated by taking the ratio of the mean index of the treated group to the mean index of the control group.
The value of the gastric pH for the treated and control animals are likewise determined.

[2] = Determination of acute toxicity (LD50, oral, mice); settings: mouse, in vivo, oral administration
Protocol: (2) Determination of Acute Toxicity
The lethal dose, LD50, of the compounds of Examples 1-8 was evaluated in mice after oral administration.

[3] = Rattus norvegicus, 4 mg/kg, read-out: Ulcerations % of protection with respect to controls
[4] = Rattus norvegicus, 20 mg/kg, read-out: Ulcerations % of protection with respect to controls
[5] = Rattus norvegicus, 0.4 mg/kg, read-out: Ulcerations % of protection with respect to controls
[6] = Rattus norvegicus, 2 mg/kg, read-out: Ulcerations % of protection with respect to controls
[7] = Rattus norvegicus, 10 mg/kg, read-out: Ulcerations % of protection with respect to controls
[8] = Rattus norvegicus, 0.8 mg/kg, read-out: Ulcerations % of protection with respect to controls
[9] = Rattus norvegicus, 50 mg/kg, read-out: Ulcerations % of protection with respect to controls

| Structure (SMILES) | inhibition in vivo at 4 mg/kg [1, 3] | inhibition in vivo at 20 mg/kg [1, 4] | pH of gastric liquid, treated animals ([1]; 4 mg/kg) | pH of gastric liquid, treated animals ([1]; 20 mg/kg) | LD50 [2] | inhibition in vivo at 2 mg/kg [1, 6] | inhibition in vivo at 10 mg/kg [1, 7] | pH of gastric liquid, treated animals ([1]; 2 mg/kg) | pH of gastric liquid, treated animals ([1]; 10 mg/kg) | also measured |
| --- | --- | --- | --- | --- | --- | --- | --- | --- | --- | --- |
| O=C(O)/C=C/C(=O)c1ccccc1[N+](=O)[O-] [Example 5, (E) 4-(2-nitrophenyl)-4-oxo-2-butenoic acid] | 19% | 100% | 3.3 | 4.3 | ~500 mg/kg |  |  |  |  |  |
| O=C(O)/C=C/C(=O)c1ccc(Cl)c(Cl)c1 [Example 4, (E) 4-(3,4-dichlorophenyl)-4-oxo-2-butenoic acid] | 14% | 71% | 3.1 | 4.1 | ~500 mg/kg |  |  |  |  |  |
| O=C(O)/C=C/C(=O)c1ccc(F)cc1 [Example 3, (E) 4-(4-fluorophenyl)-4-oxo-2-butenoic acid] |  |  |  |  | ~300 mg/kg | 43% | 100% | 2.8 | 4.0 | inhibition in vivo at 0.4 mg/kg [1, 5]: 20%; pH of gastric liquid, treated animals ([1]; 0.4 mg/kg): 3.1 |
| O=C(O)/C=C/C(=O)c1ccc(Cl)cc1 [Example 2, (E) 4-(4-chlorophenyl)-4-oxo-2-butenoic acid] |  |  |  |  | ~200 mg/kg |  |  |  |  | inhibition in vivo at 1 mg/kg ([1]; Rattus norvegicus, 1 mg/kg, read-out: Ulcerations % of protection with respect to controls): 0%; inhibition in vivo at 5 mg/kg ([1]; Rattus norvegicus, 5 mg/kg, read-out: Ulcerations % of protection with respect to controls): 57%; inhibition in vivo at 25 mg/kg ([1]; Rattus norvegicus, 25 mg/kg, read-out: Ulcerations % of protection with respect to controls): 100%; pH of gastric liquid, treated animals ([1]; 1 mg/kg): 3.0; pH of gastric liquid, treated animals ([1]; 5 mg/kg): 3.0; pH of gastric liquid, treated animals ([1]; 25 mg/kg): 5.6 |
| COc1ccc(C(=O)/C=C/C(=O)O)cc1OC [Example 1, (E) 4-(3,4-dimethoxyphenyl)-4-oxo-2-butenoic acid] | 83% | 100% | 2.6 | 4.3 | ~500 mg/kg |  |  |  |  | inhibition in vivo at 0.8 mg/kg [1, 8]: 0%; pH of gastric liquid, treated animals ([1]; 0.8 mg/kg): 2.9 |
| O=C(O)/C=C/C(=O)c1ccc2c(c1)OCO2 [Example 8, (E) 4-(3,4-methylenedioxyphenyl)-4-oxo-2-butenoic acid] |  |  |  |  | ~400 mg/kg | 33% | 60% | 3.2 | 3.3 | inhibition in vivo at 50 mg/kg [1, 9]: 100%; pH of gastric liquid, treated animals ([1]; 50 mg/kg): 5.4 |
| O=C(O)/C=C/C(=O)c1ccc(C(F)(F)F)cc1 [Example 6, (E) 4-(4-trifluoromethylphenyl)-4-oxo-2-butenoic acid] | 55% | 67% | 2.3 | 2.8 | ~600 mg/kg |  |  |  |  | inhibition in vivo at 0.8 mg/kg [1, 8]: 20%; inhibition in vivo at 100 mg/kg ([1]; Rattus norvegicus, 100 mg/kg, read-out: Ulcerations % of protection with respect to controls): 98%; pH of gastric liquid, treated animals ([1]; 0.8 mg/kg): 1.4; pH of gastric liquid, treated animals ([1]; 100 mg/kg): 6.3 |
| COc1ccc(OC)c(C(=O)/C=C/C(=O)O)c1 [Example 7, (E) 4-(2,5-dimethoxyphenyl)-4oxo-2-butenoic acid] |  |  |  |  | ~300 mg/kg | 93% | 88% | 2.8 | 3.0 | inhibition in vivo at 0.4 mg/kg [1, 5]: 0%; inhibition in vivo at 50 mg/kg [1, 9]: 100%; pH of gastric liquid, treated animals ([1]; 0.4 mg/kg): 3.0; pH of gastric liquid, treated animals ([1]; 50 mg/kg): 4.2 |
